For the assay, the system named is HSV-1 induced IFNβ protein in mouse serum. The assay can be described thus: IFNβ protein in serum of HSV-1 infected mice (ELISA). It counts as in vivo. The settings on record: wild mouse, compound by tail vein injection three times, HSV-1 by tail vein, serum collected in 6 hours, FIG. 3. From the text: Influence of the compositae type cyclopeptide compound Astin C (3) prepared in example 1 on expression of IFNβ protein in HSV-1 induced mouse serum.
The experimental principle: Expression of the IFNβ protein in the body is a mark event of innate immunity resisting infection reaction, the expressed IFNβ can activate the signal transduction channel of the interferon receptor (IFNR) to induce expression of cell factors and inflammatory factors such as interferon stimulated genes, and finally, the invading pathogenic microorganisms are eliminated by recruiting NK cells or further activating molecular mechanisms such as adaptive immune response. Therefore, after the DNA virus HSV-1 infects a mouse, the activating condition of the innate anti-infection immune response of the body can be reflected by detecting the expression quantity of IFN-β of mouse serum, so that influence of the compound on the innate anti-infection immune reaction of the body is evaluated.
The experimental method: (1) Establishment of an HSV-1 infected mouse model: A 6-8 week old wild mouse was taken; 100 μL of HSV-1, the titer of which is 1×10^7, was injected into a mouse body by way of tail vein injection; and serum was collected in 6 hours for a follow-up experiment. […]

Molecules are shown by their SMILES.

As to `CCC1NC(=O)C2C(Cl)C(Cl)CN2C(=O)C(CC)NC(=O)CC(c2ccccc2)NC(=O)C(CO)NC1=O` (stereo not shown) [Astin C], the “HSV-1 induced IFNβ content in the mouse serum” value is given as “reduce the HSV-1 induced IFNβ content in the mouse serum obviously”.

The values above are taken from US20200222497A1, “USE OF COMPOSITAE-TYPE CYCLIC PEPTIDE COMPOUND AS CGAS-STING SIGNALLING PATHWAY INHIBITOR” (CHINA PHARMACEUTICAL UNIVERSITY, priority 2017, published 2020).
